We go through two molecules from patent publication US20060099682A1, “Human vanilloid receptors and their uses” (Glaxo Group Limited, priority 1998, published 2006).

Common to all, as to format: cell-based
In one assay the target is T1, rat VR1 (Rattus norvegicus, UniProt O35433).
T1 construct: expressed in transfected cells
Briefly: FLIPR calcium assay (fluo3-AM) with HEK293 cells stably expressing rat VR1.

Assay [1] has as its target T2, hVR1 (Homo sapiens, UniProt Q8NER1, M315I/T469I). Description: Whole-cell patch clamp electrophysiology of human VR-1 channels transiently expressed in HEK293T cells. On the set-up: pClN5-new (B) with the full length hVR1 gene cloned via NotI and EcoRI restriction sites; expressed in transfected cells; host or cells: HEK293T. How it is done:
The activation of human VR-1 channels transiently expressed in HEK293T cells by capsaicin was investigated. Cells grown on poly-L-lysine-coated glass coverslips were placed in a recording chamber (0.5 ml) and superfused with extracellular solution (2 ml min^−1). The extracellular solution contained: NaCl (140 mM), KCl (5 mM), MgCl2 (2 mM), CaCl2 (2 mM), 4-(2-hydroxethyl)-1-piperazineethanesulphonic acid (HEPES, 10 mM) and glucose (10 mM). The pH was adjusted to 7.4 with NaOH and osmolarity ranged from 310-320 mOsm I^−1. Patch pipettes (borosilicate glass) were pulled using a Sutter P-97 electrode puller. The pipettes were filled with an internal solution consisting of: CsCl (140 mM), ethylene glycol-bis(β-aminoethyl ether) N,N,N′,N′-tetra acetic acid Cs salt (Cs-EGTA, 5 mM) and HEPES (10 mM). The pH was adjusted to 7.25 using CsOH and the osmolarity ranged from 275-290 mOsm. When filled with this internal solution, patch electrodes had resistances of 2-5 MΩ. Currents were recorded using standard whole-cell voltage clamp recording techniques (31) at room temperature (21-23° C.) using an Axopatch 200A amplifier and signals were sampled at 2 or 0.1 kHz. The majority of series resistance errors (80-85%) were minimized with compensation circuitry. Membrane potentials were not corrected for junction potentials (<4 mV). Voltage pulses and data collection were performed on-line using pClamp8 software (Axon Instruments) interfaced with amplifiers. Membrane potentials were maintained at −60 mV between protocols.
Capsaicin or capsazepine (CPZ) were applied, using a ‘fast-flow sytem’, directly onto the recording cell (<1 s to equilibrate). […]

The target in assay [2] is T2, hVR1. Briefly: Calcium imaging (fura2-AM) with HEK293 cells expressing hVR1. The conditions noted are these: 37° C. On the set-up: pClN5-new (B) with the full length hVR1 gene cloned via NotI and EcoRI restriction sites; expressed in transfected cells; host or cells: HEK293.
Description: HEK293 cells expressing hVR1 transiently or stably, were plated onto poly-l-lysine coated cover slips at 1×10^5 cells per well. They were analysed on the following day by calcium imaging (QuantiCell 700, Applied Imaging). On the day of experiment, WASH buffer was prepared by adding CaCl2 to extracellular medium (ECM) to a final concentration of 2 mM, (ECM contains 125 mM NaCl, 5 mM KCl, 2 mM MgCl2, 0.5 mM NaH2PO4, 5 mM NaHCO3, 10 mM Hepes, 10 mM glucose, 0.1% BSA, pH7.4). The calcium sensitive dye solution was prepared by adding 50 μl 5% pluronic F-127 in DMSO (Molecular Probes) to a vial of fura2-AM (Molecular Probes). After mixing, 20 μl of the fura2-AM solution was added to 10 ml WASH. 1.5 ml was then added to cells, which were then incubated at 37° C. for 30 minutes. The plate was washed three times with WASH. 1 ml WASH was added and stored in dark. Agonists and antagonists were prepared in WASH at 5× their required assay concentrations. The reagents and assay temperature was kept at 37° C. For the transiently transfected cells, the YFP reporter DNA fluorescence (490 nm excitation) was used to identify the transfected cells. Cells were initially imaged in 400 μl WASH (or 300 μl WASH plus 100 μl antagonist e.g. capsazepine). After approximately 1 min, 100 μl agonist (e.g. capsaicin, anadamide or resiniferatoxin) at 5× the desired concentration was added to give final 1× concentration. […]
Setting [3] is: 1 μM CPZ against 1 μM capsaicin, holding potential −60 mV.

T2 sequence (Q8NER1 whole entry M315I/T469I, the tested form may be a part): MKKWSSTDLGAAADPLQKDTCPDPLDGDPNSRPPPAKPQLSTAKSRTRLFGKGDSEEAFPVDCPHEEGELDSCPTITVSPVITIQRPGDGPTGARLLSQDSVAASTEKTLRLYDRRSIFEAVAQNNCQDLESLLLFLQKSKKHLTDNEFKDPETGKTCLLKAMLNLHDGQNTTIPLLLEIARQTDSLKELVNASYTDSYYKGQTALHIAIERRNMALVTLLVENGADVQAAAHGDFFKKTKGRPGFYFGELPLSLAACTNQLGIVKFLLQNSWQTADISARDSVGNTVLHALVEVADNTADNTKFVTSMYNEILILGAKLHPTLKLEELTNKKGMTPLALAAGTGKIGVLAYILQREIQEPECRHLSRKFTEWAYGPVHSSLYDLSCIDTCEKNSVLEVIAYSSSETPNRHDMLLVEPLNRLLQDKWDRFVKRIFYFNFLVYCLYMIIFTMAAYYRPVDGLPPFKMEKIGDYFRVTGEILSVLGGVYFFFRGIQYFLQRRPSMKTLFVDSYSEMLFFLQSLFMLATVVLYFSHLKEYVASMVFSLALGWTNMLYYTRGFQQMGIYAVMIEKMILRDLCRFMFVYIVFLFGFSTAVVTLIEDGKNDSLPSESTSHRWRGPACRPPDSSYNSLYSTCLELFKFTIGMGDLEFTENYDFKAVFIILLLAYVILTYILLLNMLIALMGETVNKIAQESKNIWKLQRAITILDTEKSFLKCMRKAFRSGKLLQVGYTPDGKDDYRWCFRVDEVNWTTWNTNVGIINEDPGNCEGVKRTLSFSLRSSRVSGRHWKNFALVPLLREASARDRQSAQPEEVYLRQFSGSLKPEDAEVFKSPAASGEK
T1 sequence (O35433 whole entry): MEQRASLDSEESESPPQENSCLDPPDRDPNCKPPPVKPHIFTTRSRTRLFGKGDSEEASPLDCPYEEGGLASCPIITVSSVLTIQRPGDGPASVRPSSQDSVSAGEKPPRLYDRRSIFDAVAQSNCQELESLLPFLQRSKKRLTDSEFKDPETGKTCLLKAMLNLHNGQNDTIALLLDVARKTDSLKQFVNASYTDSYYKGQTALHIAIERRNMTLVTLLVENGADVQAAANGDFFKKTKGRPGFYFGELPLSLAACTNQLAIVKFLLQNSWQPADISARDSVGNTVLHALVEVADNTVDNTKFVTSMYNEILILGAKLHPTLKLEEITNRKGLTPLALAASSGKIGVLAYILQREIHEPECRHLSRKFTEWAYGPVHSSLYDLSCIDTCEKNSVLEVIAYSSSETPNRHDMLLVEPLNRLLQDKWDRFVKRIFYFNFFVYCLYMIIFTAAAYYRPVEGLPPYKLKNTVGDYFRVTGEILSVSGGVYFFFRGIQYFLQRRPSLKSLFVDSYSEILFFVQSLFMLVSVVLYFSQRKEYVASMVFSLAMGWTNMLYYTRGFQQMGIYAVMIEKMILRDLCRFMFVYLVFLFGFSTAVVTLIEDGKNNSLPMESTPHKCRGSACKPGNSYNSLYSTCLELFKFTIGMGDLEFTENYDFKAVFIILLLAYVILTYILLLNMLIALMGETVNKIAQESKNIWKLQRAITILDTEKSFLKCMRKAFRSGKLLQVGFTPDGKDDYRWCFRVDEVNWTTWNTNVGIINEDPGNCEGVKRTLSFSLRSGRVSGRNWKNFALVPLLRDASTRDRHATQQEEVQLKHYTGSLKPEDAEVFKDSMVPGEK
Description for rat VR1: Intracellular calcium is monitored with the calcium sensitive dye, fluo3-AM. HEK293 cells stably expressing rat VR1 were plated into a 96 well, poly-l-lysine treated FLIPR plate at 3×10^4 cells per well. On the following day, the plate was processed for FLIPR. FBP buffer was prepared (15 μM Probenecid (calcium ATPase pump blocker) in 1× FLIPR buffer (145 mM NaCl, 5 mM KCl, 1 mM MgCl2, 2 mM CaCl2, 10 mM glucose, 20 mM Hepes). FBP buffer pH was then adjusted to 7.4 with NaOH. 400 μl DMSO was added to a vial of fluo3-AM (Cambridge Bioscience, F-1241). The fluo3-AM solution was incubated at 37° C. for 10 min and vortexed. LOAD was prepared by adding 20 μl of fluo3-AM solution and 20 μl 20% pleuronic F-127 in DMSO (Cambridge Bioscience, P-3000) into 10 ml FBP. The 96 well plate containing cells was flicked off to remove cell medium. 100 μl LOAD was added per well. Cells were then incubated at 37° C. for 60 minutes. Capsaicin (a rVR1 agonist) and capsazepine (CPZ, a rVR1 antagonist) were prepared at 10× the desired final assay concentrations in FBP. The plate was flicked to remove LOAD from cells, and 180 μl FBP was added per well. […] Cells were monitored for 70 seconds after agonist addition. The FLIPR traces (fluorescence change (counts) versus time (seconds)) were produced for each well. […] The plate was incubated for 15 minutes at room temperature prior reading in the FLIPR.

With `COc1cc(CNC(=O)CCCC/C=C/C(C)C)ccc1O` [capsaicin], the “FLIPR trace after agonist addition (fluorescence change)” value at rat VR1 (HEK293 stably expressing rVR1, monitored 70 seconds after addition) is “Peaks indicate capsaicin-gated calcium influx”. At hVR1 [1] (1 μM capsaicin, voltage ramps −100 to +70 mV), the current-voltage relationship result is reported as “substantial outward rectification”. Moreover, the “reduction of current by the 6th addition (desensitisation, rundown)” value at hVR1 [1] (capsaicin 1 μM added at 2 min intervals for about 40 s, 2 mM external calcium, current at +65 mV) is listed as “about 4 fold”. Besides, the “size of capsaicin-evoked current when external calcium replaced” value at hVR1 [1] (capsaicin 1 μM, external calcium replaced with 5 mM EGTA) is on record as “increased dramatically”. Also, the “current evoked by application of capsaicin” value on hVR1 [1] (capsaicin 1 μM, membrane held at −60 mV, HEK293T transiently expressing human VR1) is “produces an inward current”. Besides, the “calcium influx response after addition of agonist” value on hVR1 [2] is “stimulated to influx calcium”.

On to `Oc1cc2c(cc1O)CN(C(=S)NCCc1ccc(Cl)cc1)CCC2` [CPZ, capsazepine], for which, on rat VR1 (cells pre-incubated in CPZ 15 minutes at room temperature), the “antagonism of the capsaicin VR1 response (FLIPR peak heights)” value was “peak heights are reduced”. On hVR1 [1] (setting [3]), the “blockade of capsaicin-evoked inward current” value is “abolished” and the reversibility of blockade result is recorded as “partially reversible”. Besides, at hVR1 [1] (1 μM CPZ against 1 μM capsaicin, voltage ramps −100 to +70 mV), the “blockade of capsaicin-evoked current in voltage ramps” value is listed as “completely blocked the current”. On hVR1 [1] (1 μM CPZ, especially inward currents evoked by negative potentials), the “recovery after blockade in voltage ramps” value was “only partial recovery was observed”.
